Here are results for 20 compounds from US20070049593A1 (priority 2004, published 2007).

Molecules are shown by their SMILES. Counter-ions that a name gives are not always drawn.

In this assay the target is T1, HCV polymerase (Hepatitis C virus genotype 1b, UniProt P26663).
T1 construct: a region encoding NS5B (J Virol 1991 March, 65(3), 1105-13, 544 amino acids after deletion of 47 amino acids on the C-terminal); 6xHis (C); made in house; host or cells: Escherichia coli
T1 sequence (P26663 2420-2963): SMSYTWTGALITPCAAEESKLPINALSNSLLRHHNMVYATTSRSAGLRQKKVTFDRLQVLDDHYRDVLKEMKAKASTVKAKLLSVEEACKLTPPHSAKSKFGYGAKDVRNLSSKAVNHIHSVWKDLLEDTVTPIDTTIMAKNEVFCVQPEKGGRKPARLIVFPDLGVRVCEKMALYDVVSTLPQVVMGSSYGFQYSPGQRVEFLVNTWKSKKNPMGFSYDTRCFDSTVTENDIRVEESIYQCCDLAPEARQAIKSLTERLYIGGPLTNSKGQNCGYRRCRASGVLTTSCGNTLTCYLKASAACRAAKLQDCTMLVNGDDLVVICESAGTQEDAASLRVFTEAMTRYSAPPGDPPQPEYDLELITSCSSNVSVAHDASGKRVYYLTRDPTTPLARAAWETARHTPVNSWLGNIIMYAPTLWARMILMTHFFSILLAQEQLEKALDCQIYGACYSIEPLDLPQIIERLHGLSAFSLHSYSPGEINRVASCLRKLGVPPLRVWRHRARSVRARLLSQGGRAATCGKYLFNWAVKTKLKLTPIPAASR
In words: biochemical. Set-up: species or system HCV BK strain. Summed up:
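His-tagged NS5B (BK strain, 47-aa C-terminal deletion, E. coli-expressed) at 0.5 μg/ml copied 5 μg/ml run-off RNA bearing the HCV 3′ UTR with 2 μM UTP plus [3H]UTP, 50 μM ATP/GTP, in pH 7.5 Tris with 5 mM MgCl2, 25 °C, 90 min. TCA-precipitated RNA was counted and IC50 calculated.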
Take `CC(C)C1CCN(CCN2CCn3c(c(C4CCCCC4)c4ccc(C(=O)O)cc43)-c3ccccc32)CC1` [Example 1-150, 13-cyclohexyl-5-[2-(4-isopropylpiperidin-1-yl)ethyl]-6,7-dihydro-5H-benzo[5,6][1,4]diazepino[7,1-a]indole-10-carboxylic acid dihydrochloride]: the IC50 was < 100 nM.
As for `COC1CCCN(CCN2CCn3c(c(C4CCCCC4)c4ccc(C(=O)O)cc43)-c3ccccc32)C1` (centres unmarked) [Example 1-151, 13-cyclohexyl-5-[2-(3-methoxypiperidin-1-yl)ethyl]-6,7-dihydro-5H-benzo[5,6][1,4]diazepino[7,1-a]indole-10-carboxylic acid dihydrochloride], the figure is < 100 nM.
As for `CC(C)(C)OC(=O)N1CCCC(CN2CCn3c(c(C4CCCCC4)c4ccc(C(=O)O)cc43)-c3ccccc32)C1` (centres unmarked) [Example 1-152, 5-(1-tert-butoxycarbonylpiperidin-3-ylmethyl)-13-cyclohexyl-6,7-dihydro-5H-benzo[5,6][1,4]diazepino[7,1-a]indole-10-carboxylic acid], the IC50 is < 100 nM.
As for `CCN1CCCC(CN2CCn3c(c(C4CCCCC4)c4ccc(C(=O)O)cc43)-c3ccccc32)C1` (centres unmarked) [Example 1-153, 13-cyclohexyl-5-(1-ethylpiperidin-3-ylmethyl)-6,7-dihydro-5H-benzo[5,6][1,4]diazepino[7,1-a]indole-10-carboxylic acid dihydrochloride], the figure is < 100 nM; as for `O=C(O)c1ccc2c(C3CCCCC3)c3n(c2c1)CCN(CCN1CCCCCCC1)c1ccccc1-3` [Example 1-154, 5-[2-(azocan-1-yl)ethyl]-13-cyclohexyl-6,7-dihydro-5H-benzo[5,6][1,4]diazepino[7,1-a]indole-10-carboxylic acid], < 100 nM.
As for `O=C(O)c1ccc2c(C3CCCCC3)c3n(c2c1)CCN(CCN1CCCCCCCC1)c1ccccc1-3` [Example 1-155, 5-[2-(azonan-1-yl)ethyl]-13-cyclohexyl-6,7-dihydro-5H-benzo[5,6][1,4]diazepino[7,1-a]indole-10-carboxylic acid], the figure is < 100 nM; as for `CC1CCCCN1CCN1CCn2c(c(C3CCCCC3)c3ccc(C(=O)O)cc32)-c2ccccc21` (centres unmarked) [Example 1-156, 13-cyclohexyl-5-[2-(2-methylpiperidin-1-yl)ethyl]-6,7-dihydro-5H-benzo[5,6][1,4]diazepino[7,1-a]indole-10-carboxylic acid], < 100 nM; as for `O=C(O)c1ccc2c(C3CCCCC3)c3n(c2c1)CCN(CCC1CCN(C2CCCC2)CC1)c1ccccc1-3` [Example 1-157, 13-cyclohexyl-5-[2-(1-cyclopentylpiperidin-4-yl)ethyl]-6,7-dihydro-5H-benzo[5,6][1,4]diazepino[7,1-a]indole-10-carboxylic acid dihydrochloride], < 100 nM.
Turning to `O=C(O)c1ccc2c(C3CCCCC3)c3n(c2c1)CCN(CC(=O)N1CCC(C(F)(F)F)CC1)c1ccccc1-3` [Example 1-158, 13-cyclohexyl-5-[2-oxo-2-(4-trifluoromethylpiperidin-1-yl)ethyl]-6,7-dihydro-5H-benzo[5,6][1,4]diazepino[7,1-a]indole-10-carboxylic acid monohydrochloride], the IC50 is < 100 nM.
As for `O=C(O)c1ccc2c(C3CCCCC3)c3n(c2c1)CCN(CCN1CCCCC1)c1cc(C(F)(F)F)ccc1-3` [Example 1-159, 13-cyclohexyl-5-[2-(piperidin-1-yl)ethyl]-3-trifluoromethyl-6,7-dihydro-5H-benzo[5,6][1,4]diazepino[7,1-a]indole-10-carboxylic acid dihydrochloride], the IC50 was < 100 nM.
Consider `CCN1CCN(CCN2CCn3c(c(C4CCCCC4)c4ccc(C(=O)O)cc43)-c3ccc(F)cc32)CC1` [Example 1-160, 13-cyclohexyl-5-[2-(4-ethylpiperazin-1-yl)ethyl]-3-fluoro-6,7-dihydro-5H-benzo[5,6][1,4]diazepino[7,1-a]indole-10-carboxylic acid trihydrochloride], for which the IC50 was < 100 nM.
With `CC(C)(C)OC(=O)N1CCCCC1CCN1CCn2c(c(C3CCCCC3)c3ccc(C(=O)O)cc32)-c2ccccc21` (centres unmarked) [Example 1-161, 5-[2-(1-tert-butoxycarbonylpiperidin-2-yl)ethyl]-13-cyclohexyl-6,7-dihydro-5H-benzo[5,6][1,4]diazepino[7,1-a]indole-10-carboxylic acid monohydrochloride], the IC50 was < 100 nM.
For the compound `CCN1CCN(C(=O)CN2CCn3c(c(C4CCCCC4)c4ccc(C(=O)O)cc43)-c3ccc(F)cc32)CC1` [Example 1-162, 13-cyclohexyl-5-[2-(4-ethylpiperazin-1-yl)-2-oxoethyl]-3-fluoro-6,7-dihydro-5H-benzo[5,6][1,4]diazepino[7,1-a]indole-10-carboxylic acid dihydrochloride], the IC50 was < 100 nM.
As for `O=C(O)c1ccc2c(C3CCCCC3)c3n(c2c1)CCN(CCc1ccccn1)c1ccccc1-3` [Example 1-163, 13-cyclohexyl-5-[2-(pyridin-2-yl)ethyl]-6,7-dihydro-5H-benzo[5,6][1,4]diazepino[7,1-a]indole-10-carboxylic acid dihydrochloride], the figure is < 100 nM; as for `COCCN1CCn2c(c(C3CCCCC3)c3ccc(C(=O)O)cc32)-c2ccccc21` [Example 1-164, 13-cyclohexyl-5-(2-methoxyethyl)-6,7-dihydro-5H-benzo[5,6][1,4]diazepino[7,1-a]indole-10-carboxylic acid monohydrochloride], < 100 nM; as for `O=C(O)c1ccc2c(C3CCCCC3)c3n(c2c1)CCN(CCC1CCCNC1)c1ccccc1-3` (centres unmarked) [Example 1-165, 13-cyclohexyl-5-[2-(piperidin-3-yl)ethyl]-6,7-dihydro-5H-benzo[5,6][1,4]diazepino[7,1-a]indole-10-carboxylic acid dihydrochloride], < 100 nM.
On to `CCN1CCCC(CCN2CCn3c(c(C4CCCCC4)c4ccc(C(=O)O)cc43)-c3ccccc32)C1` (centres unmarked) [Example 1-166, 13-cyclohexyl-5-[2-(1-ethylpiperidin-3-yl)ethyl]-6,7-dihydro-5H-benzo[5,6][1,4]diazepino[7,1-a]indole-10-carboxylic acid dihydrochloride], for which the IC50 is < 100 nM.
The compound `CC(C)(C)OC(=O)N1CCCC(CCN2CCn3c(c(C4CCCCC4)c4ccc(C(=O)O)cc43)-c3ccccc32)C1` (centres unmarked) [Example 1-167, 5-[2-(1-tert-butoxycarbonylpiperidin-3-yl)ethyl]-13-cyclohexyl-6,7-dihydro-5H-benzo[5,6][1,4]diazepino[7,1-a]indole-10-carboxylic acid] showed an IC50 of 100 to 1000 nM.
On to `Cc1ccc2c(c1)N(CCN1CCCOCC1)CCn1c-2c(C2CCCCC2)c2ccc(C(=O)O)cc21` [Example 1-168, 13-cyclohexyl-3-methyl-5-[2-(1,4-oxazepan-4-yl)ethyl]-6,7-dihydro-5H-benzo[5,6][1,4]diazepino[7,1-a]indole-10-carboxylic acid], for which the IC50 is < 100 nM.
As for `O=C(O)c1ccc2c(C3CCCCC3)c3n(c2c1)CCN(CCN1CCCOCC1)c1cc(Cl)ccc1-3` [Example 1-169, 3-chloro-13-cyclohexyl-5-[2-(1,4-oxazepan-4-yl)ethyl]-6,7-dihydro-5H-benzo[5,6][1,4]diazepino[7,1-a]indole-10-carboxylic acid monohydrochloride], the figure is < 100 nM.

Broadly, the IC50 is the point on the concentration scale where inhibition reaches its midpoint. Low readings indicate greater potency, high ones weaker potency.
